In patent US6376426B1, “Herbicidal 3-(heterocycl-1-yl)-uracils” (BASF Aktiengesellschaft, priority 1999, dated 2002):

How the values were obtained:
Type in all cases: in vivo
Zea mays [1] = test: Pre-emergence herbicidal test, ZEAMX; parameters: key to herbicidal effect (0-9 scale) ZEAMX / herbicidal rating ZEAMX: A rating 0 indicates growth as untreated control; a rating 9 indicates death; conditions: PRE, 21 days after spraying
Method: (§1) To evaluate their herbicidal activity, compounds according to the invention are tested using a representative range of plants:
(§2) The pre-emergence tests involve spraying a liquid formulation of the compound onto the soil in which the seeds of the plant species mentioned above has recently been sown.
(§3) The soil used in the tests is a prepared horticultural loam. The formulations used in the tests are prepared from solutions of the test compounds in acetone containing 0.4% by weight of an alkylphenol/ethylene oxide condensate available under the trade mark TRITON X-155. […] In these tests untreated sown soil are used as controls.
(§4) The herbicidal effects of the test compounds are assessed visually twenty-one days after spraying the foliage and the soil and are recorded on a 0-9 scale. A rating 0 indicates growth as untreated control, a rating 9 indicates death. An increase of 1 unit on the linear scale approximates to a 10% increase in the level of effect.

Triticum aestivum [2] = test: Post-emergence herbicidal test, TRZAW; conditions: POST, 21 days after spraying
Method: as §1
(§5) […] After spraying, the plants are placed on greenhouse benches and are cared for in the usual manner, commensurate with conventional greenhouse practices.
as §4

Galium aparine [3] = test: Pre-emergence herbicidal test, GALAP; parameters: key to herbicidal effect (0-9 scale) GALAP / herbicidal rating GALAP: A rating 0 indicates growth as untreated control; a rating 9 indicates death; conditions: PRE, 21 days after spraying
Method: as §1, §2, §3, §4

Zea mays [4] = test: Post-emergence herbicidal test, ZEAMX; parameters: key: A rating 0 indicates growth as untreated control; a rating 9 indicates death; conditions: 21 days after spraying
Method: as §1, §5, §4

Stellaria media [5] = test: Pre-emergence herbicidal test, STEME; parameters: key to herbicidal effect (0-9 scale) STEME / herbicidal rating STEME: A rating 0 indicates growth as untreated control; a rating 9 indicates death; conditions: PRE, 21 days after spraying
Method: as §1, §2, §3, §4

Abutilon theophrasti [6] = test: Pre-emergence herbicidal test, ABUTH; parameters: key to herbicidal effect (0-9 scale) ABUTH / herbicidal rating ABUTH: A rating 0 indicates growth as untreated control; a rating 9 indicates death; conditions: PRE, 21 days after spraying
Method: as §1, §2, §3, §4

Echinochloa crus-galli [7] = test: Post-emergence herbicidal test, ECHCG; parameters: key: A rating 0 indicates growth as untreated control; a rating 9 indicates death; conditions: 21 days after spraying
Method: as §1, §5, §4

Setaria viridis [8] = test: Pre-emergence herbicidal test, SETVI; parameters: key to herbicidal effect (0-9 scale) SETVI / herbicidal rating SETVI: A rating 0 indicates growth as untreated control; a rating 9 indicates death; conditions: PRE, 21 days after spraying
Method: as §1, §2, §3, §4

Echinochloa crus-galli [9] = test: Pre-emergence herbicidal test, ECHCG; parameters: key: A rating 0 indicates growth as untreated control; a rating 9 indicates death; conditions: 21 days after spraying
Method: as §1, §2, §3, §4

Matricaria inodora [10] = test: Post-emergence herbicidal test, MATIN; parameters: key to herbicidal effect (0-9 scale) MATIN / herbicidal rating MATIN: A rating 0 indicates growth as untreated control; a rating 9 indicates death; conditions: POST, 21 days after spraying
Method: as §1, §5, §4

Galium aparine [11] = test: Post-emergence herbicidal test, GALAP; parameters: key to herbicidal effect (0-9 scale) GALAP / herbicidal rating GALAP: A rating 0 indicates growth as untreated control; a rating 9 indicates death; conditions: POST, 21 days after spraying
Method: as §1, §5, §4

Alopecurus myosuroides [12] = test: Post-emergence herbicidal test, ALOMY; parameters: key: A rating 0 indicates growth as untreated control; a rating 9 indicates death; conditions: 21 days after spraying
Method: as §1, §5, §4

Alopecurus myosuroides [13] = test: Pre-emergence herbicidal test, ALOMY; parameters: key to herbicidal effect (0-9 scale) ALOMY / herbicidal rating ALOMY: A rating 0 indicates growth as untreated control; a rating 9 indicates death; conditions: PRE, 21 days after spraying
Method: as §1, §2, §3, §4

Hordeum vulgare [14] = test: Post-emergence herbicidal test, HORVW; conditions: 21 days after spraying
Method: as §1
These acetone solutions are diluted with water and the resulting formulations applied at dosage levels equivalent to about 1000, 800, 400, 250 or 100 g/ha per hectare of test compound per pot. After spraying, the plants are placed on greenhouse benches and are cared for in the usual manner, commensurate with conventional greenhouse practices.
as §4

Glycine max [15] = test: Pre-emergence herbicidal test, GLXMA; conditions: PRE, 21 days after spraying
Method: as §1, §2, §3, §4

Glycine max [16] = test: Post-emergence herbicidal test, GLXMA; parameters: key: A rating 0 indicates growth as untreated control; a rating 9 indicates death; conditions: 21 days after spraying
Method: as §1, §5, §4

Ipomoea hederacea [17] = test: Pre-emergence herbicidal test, IPOHE; parameters: key: A rating 0 indicates growth as untreated control; a rating 9 indicates death; conditions: 21 days after spraying
Method: as §1, §2, §3, §4

Triticum aestivum [18] = test: Pre-emergence herbicidal test, TRZAW; parameters: key: A rating 0 indicates growth as untreated control; a rating 9 indicates death; conditions: 21 days after spraying
Method: as §1, §2, §3, §4

Abutilon theophrasti [19] = test: Post-emergence herbicidal test, ABUTH; parameters: key to herbicidal effect (0-9 scale) ABUTH / herbicidal rating ABUTH: A rating 0 indicates growth as untreated control; a rating 9 indicates death; conditions: POST, 21 days after spraying
Method: as §1, §5, §4

Setaria viridis [20] = test: Post-emergence herbicidal test, SETVI; parameters: key to herbicidal effect (0-9 scale) SETVI / herbicidal rating SETVI: A rating 0 indicates growth as untreated control; a rating 9 indicates death; conditions: POST, 21 days after spraying
Method: as §1, §5, §4

Ipomoea hederacea [21] = test: Post-emergence herbicidal test, IPOHE; parameters: key to herbicidal effect (0-9 scale) IPOHE / herbicidal rating IPOHE: A rating 0 indicates growth as untreated control; a rating 9 indicates death; conditions: POST, 21 days after spraying
Method: as §1, §5, §4

Hordeum vulgare [22] = test: Pre-emergence herbicidal test, HORVW; parameters: key: A rating 0 indicates growth as untreated control; a rating 9 indicates death; conditions: 21 days after spraying
Method: as §1, §2, §3, §4

Stellaria media [23] = test: Post-emergence herbicidal test, STEME; parameters: key to herbicidal effect (0-9 scale) STEME / herbicidal rating STEME: A rating 0 indicates growth as untreated control; a rating 9 indicates death; conditions: POST, 21 days after spraying
Method: as §1, §5, §4

Matricaria inodora [24] = test: Pre-emergence herbicidal test, MATIN; parameters: key to herbicidal effect (0-9 scale) MATIN / herbicidal rating MATIN: A rating 0 indicates growth as untreated control; a rating 9 indicates death; conditions: PRE, 21 days after spraying
Method: as §1, §2, §3, §4

COc1ccc2ccn(-n3c(=O)cc(C(F)(F)F)n(C)c3=O)c2c1 [Example 1, 6-Methoxy-1-(3-methyl-4-trifluoromethylpyrimidin-2,6-dion-1-yl)-indole]
herbicidal effect (0-9 scale) ZEAMX (Zea mays [1]; 250 g/ha): 8
herbicidal effect (0-9 scale) ZEAMX (Zea mays [1]; 1000 g/ha): 9
herbicidal effect (0-9 scale) TRZAW (Triticum aestivum [2]; 250 g/ha): 6
herbicidal effect (0-9 scale) TRZAW (Triticum aestivum [2]; 1000 g/ha): 8
herbicidal effect (0-9 scale) GALAP (Galium aparine [3]; 250 g/ha): 9
herbicidal effect (0-9 scale) GALAP (Galium aparine [3]; 1000 g/ha): 9
herbicidal effect (0-9 scale) ZEAMX (Zea mays [4]; 250 g/ha): 9
herbicidal effect (0-9 scale) ZEAMX (Zea mays [4]; 1000 g/ha): 9
herbicidal effect (0-9 scale) STEME (Stellaria media [5]; 250 g/ha): 9
herbicidal effect (0-9 scale) STEME (Stellaria media [5]; 1000 g/ha): 9
herbicidal effect (0-9 scale) ABUTH (Abutilon theophrasti [6]; 250 g/ha): 9
herbicidal effect (0-9 scale) ABUTH (Abutilon theophrasti [6]; 1000 g/ha): 9
herbicidal effect (0-9 scale) ECHCG (Echinochloa crus-galli [7]; 250 g/ha): 9
herbicidal effect (0-9 scale) ECHCG (Echinochloa crus-galli [7]; 1000 g/ha): 9
herbicidal effect (0-9 scale) SETVI (Setaria viridis [8]; 250 g/ha): 9
herbicidal effect (0-9 scale) SETVI (Setaria viridis [8]; 1000 g/ha): 9
herbicidal effect (0-9 scale) ECHCG (Echinochloa crus-galli [9]; 250 g/ha): 9
herbicidal effect (0-9 scale) ECHCG (Echinochloa crus-galli [9]; 1000 g/ha): 9
herbicidal effect (0-9 scale) MATIN (Matricaria inodora [10]; 250 g/ha): 8
herbicidal effect (0-9 scale) MATIN (Matricaria inodora [10]; 1000 g/ha): 9
herbicidal effect (0-9 scale) GALAP (Galium aparine [11]; 250 g/ha): 9
herbicidal effect (0-9 scale) GALAP (Galium aparine [11]; 1000 g/ha): 9
herbicidal effect (0-9 scale) ALOMY (Alopecurus myosuroides [12]; 250 g/ha): 9
herbicidal effect (0-9 scale) ALOMY (Alopecurus myosuroides [12]; 1000 g/ha): 9
herbicidal effect (0-9 scale) ALOMY (Alopecurus myosuroides [13]; 250 g/ha): 9
herbicidal effect (0-9 scale) ALOMY (Alopecurus myosuroides [13]; 1000 g/ha): 9
herbicidal effect (0-9 scale) HORVW (Hordeum vulgare [14]; 250 g/ha): 8
herbicidal effect (0-9 scale) HORVW (Hordeum vulgare [14]; 1000 g/ha): 8
herbicidal effect (0-9 scale) GLXMA (Glycine max [15]; 250 g/ha): 6
herbicidal effect (0-9 scale) GLXMA (Glycine max [15]; 1000 g/ha): 6
herbicidal effect (0-9 scale) GLXMA (Glycine max [16]; 250 g/ha): 9
herbicidal effect (0-9 scale) GLXMA (Glycine max [16]; 1000 g/ha): 9
herbicidal effect (0-9 scale) IPOHE (Ipomoea hederacea [17]; 250 g/ha): 8
herbicidal effect (0-9 scale) IPOHE (Ipomoea hederacea [17]; 1000 g/ha): 9
herbicidal effect (0-9 scale) TRZAW (Triticum aestivum [18]; 250 g/ha): 8
herbicidal effect (0-9 scale) TRZAW (Triticum aestivum [18]; 1000 g/ha): 9
herbicidal effect (0-9 scale) ABUTH (Abutilon theophrasti [19]; 250 g/ha): 9
herbicidal effect (0-9 scale) ABUTH (Abutilon theophrasti [19]; 1000 g/ha): 9
herbicidal effect (0-9 scale) SETVI (Setaria viridis [20]; 250 g/ha): 9
herbicidal effect (0-9 scale) SETVI (Setaria viridis [20]; 1000 g/ha): 9
herbicidal effect (0-9 scale) IPOHE (Ipomoea hederacea [21]; 250 g/ha): 9
herbicidal effect (0-9 scale) IPOHE (Ipomoea hederacea [21]; 1000 g/ha): 9
herbicidal effect (0-9 scale) HORVW (Hordeum vulgare [22]; 250 g/ha): 7
herbicidal effect (0-9 scale) HORVW (Hordeum vulgare [22]; 1000 g/ha): 9
herbicidal effect (0-9 scale) STEME (Stellaria media [23]; 250 g/ha): 9
herbicidal effect (0-9 scale) STEME (Stellaria media [23]; 1000 g/ha): 9
herbicidal effect (0-9 scale) MATIN (Matricaria inodora [24]; 250 g/ha): 9
herbicidal effect (0-9 scale) MATIN (Matricaria inodora [24]; 1000 g/ha): 9
